Source: ChEMBL document CHEMBL5303304, “EUbOPEN Chemogenomics Library - IncuCyte” (2023)
Numbered stars: 1 amine (or outer) side, 2 acyl side, 3 side chain; on linkers, the order of the positions; unused ones are H or OH. Bridge positions count the residues as written; N and C are the ends. Square brackets hold non-standard residues; d marks the D form. Peptide text beside a SMILES is read from it. I, II: the chains in the order shown. Hexamethylenediamine = C(CCCN[*:2])CCN[*:1]; Dip = N[C@H](C(=O)O)C(c1ccccc1)c1ccccc1; Chg = N[C@H](C(=O)O)C1CCCCC1; NMeA = CN[C@@H](C)C(=O)O

Columns and labels:
Type in all cases: toxicity, cell-based
HEK-293T = assay: Incucyte cell viability with HEK293T; conditions: human, 10 µM, compound concentration 10 uM
Fibroblast = assay: Incucyte cell viability with human fibroblast; conditions: 10 µM, compound concentration 10 uM
U2OS = assay: Incucyte cell viability with U2OS; conditions: human, 10 µM, compound concentration 10 uM
Further: unitless GR value; below 1 slowed growth and below 0 cell loss.

COc1cc(CN(CCN)C(=O)N[C@@H](C)c2ccccc2)ccc1OCc1ccccc1.Cl
Growth Rate (HEK-293T; 12 h, replicate number 2): 0.77 | Growth Rate (HEK-293T; 18 h, replicate number 2): 0.81 | Growth Rate (HEK-293T; 24 h, replicate number 2): 0.74 | Growth Rate (Fibroblast; 0 h, replicate number 1): -1 | Growth Rate (Fibroblast; 6 h, replicate number 1): 0.29 | Growth Rate (Fibroblast; 12 h, replicate number 1): 0.94 | Growth Rate (Fibroblast; 12 h, replicate number 2): 0.41 | Growth Rate (Fibroblast; 18 h, replicate number 1): 0.87 | Growth Rate (Fibroblast; 18 h, replicate number 2): 0.71 | Growth Rate (Fibroblast; 24 h, replicate number 1): 0.72 | Growth Rate (Fibroblast; 24 h, replicate number 2): 0.83 | Growth Rate (U2OS; 0 h, replicate number 1): -0.64 | Growth Rate (U2OS; 0 h, replicate number 2): -0.26 | Growth Rate (U2OS; 6 h, replicate number 1): 0.64 | Growth Rate (U2OS; 6 h, replicate number 2): 0.82 | Growth Rate (U2OS; 12 h, replicate number 1): 0.69 | Growth Rate (U2OS; 18 h, replicate number 1): 0.98 | Growth Rate (U2OS; 18 h, replicate number 2): 0.92 | Growth Rate (U2OS; 24 h, replicate number 1): 0.79 | Growth Rate (U2OS; 24 h, replicate number 2): 1

COc1ccc(S(=O)(=O)N2CCOCC2)cc1Nc1ccc2c(n1)N(C1CCOCC1)[C@H](C)C(=O)N2C
Growth Rate (HEK-293T; 24 h, replicate number 1): 0.7 | Growth Rate (HEK-293T; 24 h, replicate number 2): 0.81 | Growth Rate (Fibroblast; 0 h, replicate number 2): -0.13 | Growth Rate (Fibroblast; 6 h, replicate number 2): -0.44 | Growth Rate (Fibroblast; 12 h, replicate number 2): 0.55 | Growth Rate (Fibroblast; 18 h, replicate number 2): 0.25 | Growth Rate (Fibroblast; 24 h, replicate number 2): 0.36 | Growth Rate (U2OS; 24 h, replicate number 1): 0.7 | Growth Rate (U2OS; 24 h, replicate number 2): 0.96

CN[C@@H](C)C(=O)N[C@H](C(=O)N1CCC[C@H]1C(=O)N[C@H](C(=O)NCCCCCCNC(=O)[C@@H](NC(=O)[C@@H]1CCCN1C(=O)[C@@H](NC(=O)[C@H](C)NC)C1CCCCC1)C(c1ccccc1)c1ccccc1)C(c1ccccc1)c1ccccc1)C1CCCCC1 (I: H-[NMeA][Chg]P[Dip] / II: H-[NMeA][Chg]P[Dip]; linker I:C-II:C via Hexamethylenediamine)
Growth Rate (HEK-293T; 6 h, replicate number 1): -0.33 | Growth Rate (HEK-293T; 6 h, replicate number 2): -0.41 | Growth Rate (HEK-293T; 12 h, replicate number 1): -0.42 | Growth Rate (HEK-293T; 12 h, replicate number 2): -0.4 | Growth Rate (HEK-293T; 18 h, replicate number 1): -0.3 | Growth Rate (HEK-293T; 18 h, replicate number 2): -0.31 | Growth Rate (HEK-293T; 24 h, replicate number 1): -0.23 | Growth Rate (HEK-293T; 24 h, replicate number 2): -0.25 | Growth Rate (Fibroblast; 0 h, replicate number 2): -0.82 | Growth Rate (Fibroblast; 12 h, replicate number 1): 0.82 | Growth Rate (Fibroblast; 12 h, replicate number 2): 0.74 | Growth Rate (Fibroblast; 18 h, replicate number 1): 0.47 | Growth Rate (Fibroblast; 18 h, replicate number 2): 0.49 | Growth Rate (Fibroblast; 24 h, replicate number 1): 0.5 | Growth Rate (Fibroblast; 24 h, replicate number 2): 0.33 | Growth Rate (U2OS; 0 h, replicate number 2): -0.47 | Growth Rate (U2OS; 6 h, replicate number 1): -0.4 | Growth Rate (U2OS; 6 h, replicate number 2): -0.46 | Growth Rate (U2OS; 12 h, replicate number 1): -0.41 | Growth Rate (U2OS; 12 h, replicate number 2): -0.63 | Growth Rate (U2OS; 18 h, replicate number 1): -0.25 | Growth Rate (U2OS; 18 h, replicate number 2): -0.21 | Growth Rate (U2OS; 24 h, replicate number 1): -0.22 | Growth Rate (U2OS; 24 h, replicate number 2): -0.21

C[C@H](C[C@H](N)C(=O)O)C(=O)O [2S,4R-4-METHYLGLUTAMATE]
Growth Rate (HEK-293T; 0 h, replicate number 2): 0.9 | Growth Rate (Fibroblast; 0 h, replicate number 2): -0.67 | Growth Rate (Fibroblast; 6 h, replicate number 2): 0.92 | Growth Rate (Fibroblast; 12 h, replicate number 2): 0.66 | Growth Rate (Fibroblast; 24 h, replicate number 1): 0.42 | Growth Rate (Fibroblast; 24 h, replicate number 2): 0.97 | Growth Rate (U2OS; 6 h, replicate number 2): 0.65 | Growth Rate (U2OS; 12 h, replicate number 2): 0.89 | Growth Rate (U2OS; 18 h, replicate number 2): 0.82 | Growth Rate (U2OS; 24 h, replicate number 2): 0.94

N#CN1CC[C@H](C(=O)Nc2nc3c(s2)CN(C(=O)CN=[N+]=[N-])CC3)C1 [8RK64]
Growth Rate (HEK-293T; 6 h, replicate number 2): 0.66 | Growth Rate (HEK-293T; 12 h, replicate number 1): 0.99 | Growth Rate (HEK-293T; 12 h, replicate number 2): 0.81 | Growth Rate (HEK-293T; 18 h, replicate number 2): 0.93 | Growth Rate (HEK-293T; 24 h, replicate number 2): 0.94 | Growth Rate (Fibroblast; 0 h, replicate number 2): 0.48 | Growth Rate (Fibroblast; 12 h, replicate number 1): 0.41 | Growth Rate (U2OS; 18 h, replicate number 2): 0.94 | Growth Rate (U2OS; 24 h, replicate number 2): 0.89

Cc1onc(O)c1CC(N)C(=O)O [(R,S)-AMPA]
Growth Rate (HEK-293T; 0 h, replicate number 2): 0.65 | Growth Rate (HEK-293T; 6 h, replicate number 1): 0.47 | Growth Rate (HEK-293T; 6 h, replicate number 2): 0.09 | Growth Rate (HEK-293T; 12 h, replicate number 1): 0.21 | Growth Rate (HEK-293T; 12 h, replicate number 2): 0.69 | Growth Rate (HEK-293T; 18 h, replicate number 1): 0.78 | Growth Rate (HEK-293T; 18 h, replicate number 2): 0.64 | Growth Rate (HEK-293T; 24 h, replicate number 1): 0.74 | Growth Rate (Fibroblast; 0 h, replicate number 1): -0.2 | Growth Rate (Fibroblast; 6 h, replicate number 2): -0.99 | Growth Rate (Fibroblast; 12 h, replicate number 1): -1 | Growth Rate (Fibroblast; 12 h, replicate number 2): 0.59 | Growth Rate (U2OS; 0 h, replicate number 1): -0.22 | Growth Rate (U2OS; 0 h, replicate number 2): -0.98 | Growth Rate (U2OS; 6 h, replicate number 2): 0.78 | Growth Rate (U2OS; 12 h, replicate number 2): 0.82 | Growth Rate (U2OS; 18 h, replicate number 2): 0.94 | Growth Rate (U2OS; 24 h, replicate number 2): 0.94

CCC(=N\O)/C(C)=C/c1ccc(F)cc1 [A-079]
Growth Rate (HEK-293T; 6 h, replicate number 1): 0.09 | Growth Rate (HEK-293T; 6 h, replicate number 2): -0.79 | Growth Rate (HEK-293T; 12 h, replicate number 2): -0.09 | Growth Rate (HEK-293T; 18 h, replicate number 2): 0.33 | Growth Rate (HEK-293T; 24 h, replicate number 2): 0.57 | Growth Rate (Fibroblast; 0 h, replicate number 2): -0.47 | Growth Rate (Fibroblast; 6 h, replicate number 1): 0.02 | Growth Rate (Fibroblast; 18 h, replicate number 1): 0.86 | Growth Rate (U2OS; 0 h, replicate number 2): -0.97 | Growth Rate (U2OS; 6 h, replicate number 1): 0.53 | Growth Rate (U2OS; 6 h, replicate number 2): 0.16 | Growth Rate (U2OS; 12 h, replicate number 2): 0.89 | Growth Rate (U2OS; 18 h, replicate number 1): 1 | Growth Rate (U2OS; 18 h, replicate number 2): 0.78 | Growth Rate (U2OS; 24 h, replicate number 2): 0.79

O=C(Cc1ccccc1)Nc1nnc(N2CC[C@@H]3[C@H]2CN3c2cccnn2)s1 [A-426]
Growth Rate (HEK-293T; 6 h, replicate number 1): 0.31 | Growth Rate (HEK-293T; 12 h, replicate number 1): 0.39 | Growth Rate (HEK-293T; 18 h, replicate number 1): 0.67 | Growth Rate (HEK-293T; 24 h, replicate number 1): 0.85 | Growth Rate (Fibroblast; 6 h, replicate number 1): 0.66 | Growth Rate (Fibroblast; 6 h, replicate number 2): 0.16 | Growth Rate (Fibroblast; 12 h, replicate number 1): 0.76 | Growth Rate (Fibroblast; 12 h, replicate number 2): 0.86 | Growth Rate (Fibroblast; 18 h, replicate number 1): 0.8 | Growth Rate (Fibroblast; 18 h, replicate number 2): 0.69 | Growth Rate (Fibroblast; 24 h, replicate number 1): 0.73 | Growth Rate (U2OS; 0 h, replicate number 1): -0.69 | Growth Rate (U2OS; 6 h, replicate number 1): 0.79 | Growth Rate (U2OS; 12 h, replicate number 1): 0.69 | Growth Rate (U2OS; 18 h, replicate number 1): 0.77 | Growth Rate (U2OS; 24 h, replicate number 1): 0.84

O=C(Cc1ccccc1)Nc1nnc(N2C[C@H]3C[C@@H]2CN3c2cccnn2)s1 [A-446]
Growth Rate (HEK-293T; 0 h, replicate number 1): 0.58 | Growth Rate (HEK-293T; 0 h, replicate number 2): -0.11 | Growth Rate (HEK-293T; 6 h, replicate number 2): 0.68 | Growth Rate (HEK-293T; 12 h, replicate number 1): 0.83 | Growth Rate (HEK-293T; 12 h, replicate number 2): 0.97 | Growth Rate (HEK-293T; 18 h, replicate number 2): 0.86 | Growth Rate (HEK-293T; 24 h, replicate number 1): 0.93 | Growth Rate (HEK-293T; 24 h, replicate number 2): 0.94 | Growth Rate (Fibroblast; 0 h, replicate number 2): 0.67 | Growth Rate (Fibroblast; 6 h, replicate number 1): 0.15 | Growth Rate (Fibroblast; 6 h, replicate number 2): -0.04 | Growth Rate (Fibroblast; 12 h, replicate number 1): 0.45 | Growth Rate (Fibroblast; 12 h, replicate number 2): 0.18 | Growth Rate (Fibroblast; 18 h, replicate number 1): 0.27 | Growth Rate (Fibroblast; 18 h, replicate number 2): 0.19 | Growth Rate (Fibroblast; 24 h, replicate number 1): 0.33 | Growth Rate (Fibroblast; 24 h, replicate number 2): 0.04 | Growth Rate (U2OS; 0 h, replicate number 1): 0.34 | Growth Rate (U2OS; 0 h, replicate number 2): 0.56 | Growth Rate (U2OS; 6 h, replicate number 1): 0.82 | Growth Rate (U2OS; 6 h, replicate number 2): 0.43 | Growth Rate (U2OS; 12 h, replicate number 1): 0.68 | Growth Rate (U2OS; 12 h, replicate number 2): 0.59 | Growth Rate (U2OS; 18 h, replicate number 1): 0.54 | Growth Rate (U2OS; 18 h, replicate number 2): 0.8 | Growth Rate (U2OS; 24 h, replicate number 1): 0.87 | Growth Rate (U2OS; 24 h, replicate number 2): 0.77
